Data published in ChEMBL document CHEMBL1129411, “Synthesis and dopamine transporter affinity of 2-(methoxycarbonyl)-9-methyl-3-phenyl-9-azabicyclo[3.3.1]nonane derivatives” (J Med Chem, 1996).
pKi: −log10 of the molar value.

Biological target: Sodium-dependent dopamine transporter (Rattus norvegicus, UniProt P23977)
Assay: Binding affinity against dopamine transporter in rat caudate putamen tissue using [3H]WIN-35428 radioligand.
Assay type: tissue-based

Sequence of Sodium-dependent dopamine transporter (P23977 whole entry): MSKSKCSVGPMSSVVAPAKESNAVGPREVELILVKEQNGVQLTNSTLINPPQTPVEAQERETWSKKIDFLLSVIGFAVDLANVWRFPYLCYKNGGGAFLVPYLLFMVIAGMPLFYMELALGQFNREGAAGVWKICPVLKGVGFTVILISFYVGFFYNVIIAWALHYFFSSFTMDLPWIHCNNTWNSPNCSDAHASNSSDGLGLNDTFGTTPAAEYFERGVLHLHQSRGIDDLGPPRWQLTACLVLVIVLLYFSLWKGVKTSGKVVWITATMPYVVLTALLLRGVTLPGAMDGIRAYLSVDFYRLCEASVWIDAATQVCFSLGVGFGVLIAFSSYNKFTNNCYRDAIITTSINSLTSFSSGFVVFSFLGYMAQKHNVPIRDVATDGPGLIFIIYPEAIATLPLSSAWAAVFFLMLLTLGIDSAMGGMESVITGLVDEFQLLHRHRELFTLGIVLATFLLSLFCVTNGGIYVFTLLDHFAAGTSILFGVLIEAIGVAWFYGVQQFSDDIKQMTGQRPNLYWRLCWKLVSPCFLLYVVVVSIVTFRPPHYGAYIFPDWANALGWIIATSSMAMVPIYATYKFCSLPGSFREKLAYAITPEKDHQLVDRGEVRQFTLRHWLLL

Structure (SMILES)	pKi
CO/C(O)=C1/C(=O)CCC2CCCC1N2C (centres undefined)	< 4.00
CN1C2CCCC1C(C(=O)c1ccccc1)C(c1ccccc1)C2 (stereo in doubt; 13)	5.40
COC(=O)[C@@H]1C2CC[C@H](C[C@@H]1c1ccccc1)N2C	6.51
CN1C2CCCC1C(C(=O)c1ccccc1)C(c1ccccc1)C2 (stereo in doubt; 14)	5.72
